Measured values published in PMC10452847 (Cancers, 2023).

Legend:
[1] = test system: RMS559 xenograft; test: triple combination xenograft efficacy study; assay type: in vivo, NSG mice; settings: for median survival: futibatinib 10 mg/kg oral M-F 3 weeks, irinotecan 6 mg/kg iv once, vincristine 0.4 mg/kg iv once, vehicle 11
[2] = test system: RMS559 xenograft; test: two-drug combination xenograft efficacy study; settings: for median survival: futibatinib 15 mg/kg, irinotecan 25 mg/kg, vincristine 0.4 mg/kg, vehicle 23
[3] = test system: RH4 xenograft; test: two-drug combination xenograft efficacy study; assay type: in vivo, NSG mice; settings: futibatinib 15 mg/kg, irinotecan 25 mg/kg, vincristine 0.4 mg/kg, vehicle 39
[4] = test system: SCMC xenograft; test: two-drug combination xenograft efficacy study; assay type: in vivo, NSG mice; settings: for Days (survival, inset of Figure 4): SCMC xenograft, futibatinib 15 mg/kg, irinotecan 50 mg/kg decreased to 25 mg/kg, vincristine 0.4 mg/kg, vehicle 30
[5] = two-drug combination tolerability study; assay type: in vivo, mice; settings: futibatinib oral M-F three weeks, irinotecan iv Monday for three weeks, vincristine iv once
Method: Figure A4 Two-drug combination tolerability study. (A) Schematic of tolerability study. […] Irinotecan was given via tail vein injection at two dosages (75 mg/kg and 50 mg/kg) on Monday for three weeks. (B) Relative body weights of mice treated with the futibatinib-vincristine or futibatinib-irinotecan combinations.

[6] = test system: mutant FGFR4-driven RMS tumor; parameters: method as in PMID 24124571; settings: cited from earlier work
[7] = test system: advanced solid tumors with FGFR aberrations; settings: 197 patients with advanced solid tumors with FGFR aberrations; cited from earlier work
[8] = test system: RH4 xenograft; test: futibatinib single agent xenograft efficacy study; settings: 5-25 mg/kg daily (SID) oral gavage, three weeks, vs vehicle
[9] = test system: SCMC xenograft; test: futibatinib single agent xenograft efficacy study; settings: 5-25 mg/kg daily (SID) oral gavage, three weeks, vs vehicle
[10] = in vivo; settings: NOD SCID Gamma (NSG), mouse, plasma, po, 25 mg/kg, 25 mg/kg oral gavage, single dose, SCMC tumor-bearing mice
[11] = test system: phosphorylation of FGFR4 and ERK1/2 in RMS559; test: Western blot of RMS559 treated with futibatinib; assay type: cell-based, human; settings: increasing concentrations, 6 h
Method: Cells were collected with a cell scraper, then pelleted by centrifugation, washed with ice-cold PBS, and lysed in RIPA buffer with 1% HALT Protease and Phosphatase inhibitors. Lysates were sonicated to shear genomic DNA and clarified by centrifugation at 18,000× g for 20 min. The protein concentration of the resulting supernatant was determined by BCA assay. 20 μg of protein was run on NuPage 4–12% BisTris gels (Invitrogen, Carlsbad, CA, USA) and transferred to PVDF membranes (Invitrogen). Membranes were blocked in 5% nonfat dried milk in TBST for 1 h at room temperature and incubated with primary antibody overnight at 4 °C. HRP-conjugated anti-rabbit secondary antibody was used to probe the primary antibody. Protein was visualized using Amersham ECL Western Blotting Detection Reagent (Amersham, UK). The following antibodies were used: pFGFR4 (ab192589, Abcam, Cambridge, UK), FGFR4 (8562, Cell Signaling Technology (CST), Danvers, MA, USA), pERK1/2 (4370, CST), ERK1/2 (4695, CST), and GAPDH (8884, CST). Relative band intensity was quantified in Image Lab software (Version 5.2.1, Bio-Rad, Philadelphia, PA, USA)

[12] = test system: RMS559 xenograft; test: futibatinib single agent xenograft efficacy study; settings: 5-25 mg/kg daily (SID) oral gavage, three weeks, vs vehicle
[13] = test system: RMS559 xenograft; parameters: method as in PMID 36097178; settings: RMS559 xenograft models; twice daily dosing, nude mice; cited from earlier work

SMILES	median survival [1] [days]	median survival [2] [days]	Days (survival, inset of Figure 4) [3] [days]	Days (survival, inset of Figure 4) [4] [days]	maximum tolerated dosages for the drug combinations [5] [mg/kg]	further results
CC[C@]1(O)C[C@H]2CN(CCc3c([nH]c4ccccc34)[C@@](C(=O)OC)(c3cc4c(cc3OC)N(C=O)[C@H]3[C@@](O)(C(=O)OC)[C@H](OC(C)=O)[C@]5(CC)C=CCN6CC[C@]43[C@@H]65)C2)C1 [vincristine]	15	23	41	37	0.4	average tumor volume ([2]; day 18 of treatment, futibatinib 15 mg/kg oral M-F 3 weeks, irinotecan 25 mg/kg iv Monday 3 weeks, vincristine 0.4 mg/kg iv once): 1016 mm^3
Cc1ccc(C(=O)Nc2ccc(CN3CCN(C)CC3)c(C(F)(F)F)c2)cc1C#Cc1cnc2cccnn12 [ponatinib]						effect on tumor growth in mice [6]: inhibit mutant FGFR4-driven RMS tumor growth
CCc1c2c(nc3ccc(OC(=O)N4CCC(N5CCCCC5)CC4)cc13)-c1cc3c(c(=O)n1C2)COC(=O)[C@]3(O)CC [irinotecan]	15	29	51.5	48	50	toxicity of dose ([4]; irinotecan 50 mg/kg iv on Monday, SCMC xenograft study): toxic
C=CC(=O)N1CC[C@H](n2nc(C#Cc3cc(OC)cc(OC)c3)c3c(N)ncnc32)C1 [futibatinib]	15	23	36	33	15	objective response rate (ORR) [7]: 13.7%; average tumor volume ([1]; day 11 of treatment, futibatinib 10 mg/kg oral M-F, vehicle 1532): 1072 mm^3; effect in delaying tumor growth or prolonging survival [8]: no significant effect; effect in delaying tumor growth or prolonging survival [9]: no significant effect; half-life [10]: ~240 min; phosphorylation of FGFR4 and ERK1/2 (western blot) [11]: inhibited phosphorylation of FGFR4 and a downstream target ERK1/2 in a dose-dependent manner; effect in delaying tumor growth or prolonging survival [12]: no significant effect
COCCNc1cc(NC(=O)N2CCCc3cc(CN4CCN(C)CC4=O)c(C=O)nc32)ncc1C#N [FGF401]						effect on tumor progression [13]: effective at delaying tumor progression
